Measured values reported in patent US10294262B2, “7-deazapurine nucleosides for therapeutic uses” (Institute of Organic Chemistry and Biochemistry ASCR, V.V.I., priority 2009, dated 2019).
Where two headings read alike, the source gives them in different places.

Experiments:
human tumor cell lines = assay: Tests A and B, all tumor cell lines together; assay type: cell-based; conditions: read-out: CC50 Geometric mean all
Experimental: (§1) • 1. […] Fix one plate of each cell line with TCA. […] Discard TCA from the plates by flicking them gently. […] Store the plates at room temperature. These plates represent cell counts on day zero. • 4. […] Add 50 μL of the diluted compounds per well. […] Fix the plates with TCA. […] Discard TCA from the plates by flicking them gently. […] Leave at room temperature for 30 minutes. • 9. Flick the plates gently to discard SRB.
Plates were incubated for 5 days with tested compounds.

[1] = test system: MT-4 T-lymphoid cell line; assay: Test B: Cytostatic cell culture assay (CC50), CellTiter Glo, lymphoid tumor cell lines; conditions: Homo sapiens, MT4, 120 h, read-out: CC50 T-lymphoid MT-4
Experimental: Test B: Cytostatic Cell Culture Assay (CC50) for Lymphoid Tumor Cell Lines
This test is typically performed with cell lines that are derived from hematological tumors and grow in suspension. An example of such cell line is human MT-4 T-lymphoid cell line used for the determination of cytostatic activity of tested compounds. […] Cells were passaged in suspension twice a week and maintained at densities below 500,000 cells/mL. For CC50 determination, cells were seeded into 384-well plates at 2,000 cells/well in 20 μL of culture medium. Compounds were serially diluted in culture medium and added in triplicate to a final assay volume of 40 μL/well. Plates were incubated for 5 days with tested compounds. At the end of incubation, cell viability was determined by addition of 40 μL of CellTiter Glo reagent followed by a luminescence read-out.
Data analysis and CC50 value calculations were done using GraphPad Prism software (GraphPad Software, San Diego, Calif.) by applying nonlinear regression.

Du145 = assay: Test A: Cytostatic cell culture assay (CC50), SRB, solid tumor cell lines; assay type: cell-based; conditions: Homo sapiens, DU-145, 120 h, read-out: CC50 Prostate Du145
Experimental: (§2) Gemcitabine is obtained from Moravek Biochemicals (Brea, Calif.)
as §1

HS578 = assay: as above; assay type: cell-based; conditions: Homo sapiens, Hs578, 120 h, read-out: CC50 Breast HS578
Experimental: as §2, §1

NCI H23 = assay: as above; assay type: cell-based; conditions: Homo sapiens, NCI-H23, 120 h, read-out: CC50 Lung NCI H23
Experimental: as §2, §1

HCT116 = assay: as above; assay type: cell-based; conditions: Homo sapiens, HCT-116, 120 h, read-out: CC50 Colon HCT116
Experimental: as §2, §1

A549 = assay: as above; conditions: Homo sapiens, A549, 120 h, read-out: CC50 Lung A549
From the text: Test A: Cytostatic Cell Culture Assay (CC50) for Solid Tumor Cell Lines
This assay is based on quantification of cell mass determination by a colorimetric detection of the cell associated proteins. The assay relies on the ability of sulforhodamine B (SRB) to bind to protein components of cells that have been fixed to tissue-culture plates by trichloroacetic acid (TCA). SRB is a bright-pink aminoxanthene dye with two sulfonic groups that bind to basic amino-acid residues under mild acidic conditions, and dissociate under basic conditions. As the binding of SRB is stochiometric, the amount of dye extracted from stained cells is directly proportional to the cell mass.
Cell lines: All cell lines are obtained from ATCC (Manassas, Va.). Cultivation media containing Glutamax, and trypsin are purchased from Invitrogen (Carlsbad, Calif.). Doxorubicin, Tubercidin, Clofarabine, TCA and SRB are from Sigma-Aldrich (St. Louis, Mo.). Gemcitabine is obtained from Moravek Biochemicals (Brea, Calif.)
• 1. Trypsinize the sub-confluent cells, count them, and adjust the cell concentrations according to the cell counts listed in Table 1. • 2. Distribute the cells into the 96-well plates in 150 μL of media. Incubate the plates overnight in humidified CO2 incubator at 37° C. • 3. Fix one plate of each cell line with TCA. Discard the cultivation media from the plates by flicking them gently and add 100 μL cold 10% (vol/vol) TCA to each well. Incubate the plates at 4 degree refrigerator for 1 hour. Discard TCA from the plates by flicking them gently. Rinse plates four times in a washing basin containing tap water. Store the plates at room temperature. These plates represent cell counts on day zero. • 4. Prepare a set of medium solutions containing various concentrations of tested compounds by making 5-fold serial dilutions in 96-well plate. Add 50 μL of the diluted compounds per well. Include controls with untreated cells and cells treated with doxorubicin, tubercidin, clofarabine and/or gemcitabine. • 5. Incubate the plates for 5 days at 37° C. • 6. Fix the plates with TCA. Discard the cultivation media from the plates by flicking them gently and add 100 μL cold 10% (vol/vol) TCA to each well. Incubate the plates at 4 degree refrigerator for 1 hour. Discard TCA from the plates by flicking them gently. Rinse plates four times in a washing basin containing tap water. • 7. Remove excess water by tapping the plates face down, gently on a paper towel. Allow the plates to air-dry at room temperature. • 8. Add 100 μL of 0.057% SRB solution in 1% (vol/vol) acetic acid to each well of the plates fixed with TCA on day zero and five. Leave at room temperature for 30 minutes. • 9. Flick the plates gently to discard SRB. Rinse the plates four times with 1% (vol/vol) Acetic Acid. • 10. Store the plates at 37° incubator to facilitate faster drying. • 11. Once the plates are completely dry, add 200 μL of 10 mM Tris base solution (pH 10.5) to each well. Leave at room temperature for 30 minutes for SRB to solubilize. • 12. Measure the OD at 500 nm in a microplate reader. • 13. Calculate the percentage of cell-growth inhibition using the next formula: % of control cell growth=100×(ODsample−mean ODday0)/(ODneg control−mean ODday0). For CC50 determination, plot a dose-response curves between the compound concentration and percent of growth inhibition. CC50 values can be derived by fitting dose-response curves using sigmoidal dose response equation.

BT549 = assay: as above; assay type: cell-based; conditions: Homo sapiens, BT-549, 120 h, read-out: CC50 Breast BT549
Experimental: as §2, §1

PC3 = assay: as above; assay type: cell-based; conditions: Homo sapiens, PC-3, 120 h, read-out: CC50 Prostate PC3
Experimental: as §2, §1

[2] = BT549 breast tumor cells, 5 days, SRB

melting point [°C]	SMILES	CC50 (human tumor cell lines) [nM]	CC50 [1] [nM]	CC50 (Du145) [nM]	CC50 (HS578) [nM]	CC50 (NCI H23) [nM]	CC50 (HCT116) [nM]	CC50 (A549) [nM]	CC50 (BT549; [2]) [nM]	CC50 (PC3) [nM]	CC50 (BT549) [nM]
	CSc1ccc(-c2cn([C@@H]3O[C@H](CO)[C@@H](O)[C@H]3O)c3ncnc(N)c23)cc1 [Compound 2c, 4-Amino-5-[4-(methylthio)phenyl]-7-(β-D-ribofuranosyl)-7H-pyrrolo[2,3-d]pyrimidine]	1520	4400	1870	1970	390	1290				
	Nc1ncnc2c1c(-c1cccc3ccccc13)cn2[C@@H]1O[C@H](CO)C(O)C1O (stereo partly drawn) [Compound 2d, 4-Amino-5-(naphtalen-1-yl)-7-(β-D-ribofuranosyl)-7H-pyrrolo[2,3-d]pyrimidine]	> 10000		> 10000	> 10000	> 10000	> 10000				
	Nc1ncnc2c1c(-c1ccc3ccccc3c1)cn2[C@@H]1O[C@H](CO)C(O)C1O (stereo partly drawn) [Compound 2e, 4-Amino-5-(naphtalen-2-yl)-7-(β-D-ribofuranosyl)-7H-pyrrolo[2,3-d]pyrimidine]	2880		1050	2160	5350	5670				
	Nc1ncnc2c1c(-c1ccoc1)cn2[C@@H]1O[C@H](CO)[C@@H](O)[C@H]1O [Compound 2h, 4-Amino-5-(furan-3-yl)-7-(β-D-ribofuranosyl)-7H-pyrrolo[2,3-d]pyrimidine]	78.1	170	330	21	198	15	34	28	418	
	Nc1ncnc2c1c(-c1ccsc1)cn2[C@@H]1O[C@H](CO)[C@@H](O)[C@H]1O [Compound 2i, 4-Amino-7-(β-D-ribofuranosyl)-5-(thiophen-3-yl)-7H-pyrrolo[2,3-d]pyrimidine]	60.7	124	97	50	73	7	16	28	1320	
	Nc1ncnc2c1c(-c1cc3ccccc3o1)cn2[C@@H]1O[C@H](CO)[C@@H](O)[C@H]1O [Compound 2j, 4-Amino-5-(benzofuran-2-yl)-7-(β-D-ribofuranosyl)-7H-pyrrolo[2,3-d]pyrimidine]	5540	4800		6730	5400	3740	7020		6290	> 10000
	Nc1ncnc2c1c(-c1cc[nH]c1)cn2[C@@H]1O[C@H](CO)[C@@H](O)[C@H]1O [Compound 2l, 4-Amino-5-(1H-pyrrol-3-yl)-7-(β-D-ribofuranosyl)-7H-pyrrolo[2,3-d]pyrimidine]	11.4	24		4.4	33	5.9	5.3	8	29	
	Nc1ncnc2c1c(-c1cn[nH]c1)cn2[C@@H]1O[C@H](CO)[C@@H](O)[C@H]1O [Compound 2m, 4-Amino-5-(1H-pyrazol-4-yl)-7-(β-D-ribofuranosyl)-7H-pyrrolo[2,3-d]pyrimidine]	81.9	110		12	144	970	192	50	14	
135	Nc1ncnc2c1c(-c1cc[nH]n1)cn2[C@@H]1O[C@H](CO)[C@@H](O)[C@H]1O [Compound 2n, 4-Amino-5-(1H-pyrazol-3-yl)-7-(β-D-ribofuranosyl)-7H-pyrrolo[2,3-d]pyrimidine]	17.1	18		8	35	18			15	
	C#Cc1cn([C@@H]2O[C@H](CO)[C@@H](O)[C@H]2O)c2ncnc(N)c12 [Compound 2o, 4-Amino-5-ethynyl-7-(β-D-ribofuranosyl)-7H-pyrrolo[2,3-d]pyrimidine]	1.9	1		1	1	2			11	
286 to 288	Nc1ncnc2c1c(-c1c[nH]nn1)cn2[C@@H]1O[C@H](CO)[C@@H](O)[C@H]1O [Compound 2p, 4-Amino-7-(β-D-ribofuranosyl)-5-(1H-1,2,3-triazol-4-yl)-7H-pyrrolo[2,3-d]pyrimidine]	5.2	18		3	4	4			5	
	Nc1ncnc2c1c(-c1nccs1)cn2[C@@H]1O[C@H](CO)[C@@H](O)[C@H]1O [Compound 2q, 4-Amino-7-(β-D-ribofuranosyl)-5-(thiazol-2-yl)-7H-pyrrolo[2,3-d]pyrimidine]	25.6	42		15	5	93			42	
	Nc1ncnc2c1c(-c1c[nH]cn1)cn2[C@@H]1O[C@H](CO)[C@@H](O)[C@H]1O [Compound 2r, 4-Amino-5-(1H-imidazol-4-yl)-7-(β-D-ribofuranosyl)-7H-pyrrolo[2,3-d]pyrimidine]	3.8	28		2	2	3			2	
153 to 156	Nc1ncnc2c1c(-c1ncc[nH]1)cn2[C@@H]1O[C@H](CO)[C@@H](O)[C@H]1O [Compound 2s, 4-Amino-5-(1H-imidazol-2-yl)-7-(β-D-ribofuranosyl)-7H-pyrrolo[2,3-d]pyrimidine]	3.8	49		1	6	2			1	
129	C[C@@]1(O)[C@H](O)[C@@H](CO)O[C@H]1n1cc(-c2ccccc2)c2c(N)ncnc21 [Compound 7a, 4-Amino-7-(2-C-methyl-β-D-ribofuranosyl)-5-phenyl-7H-pyrrolo[2,3-d]pyrimidine]										
127	COc1ccc(-c2cn([C@@H]3O[C@H](CO)[C@@H](O)[C@@]3(C)O)c3ncnc(N)c23)cc1 [Compound 7b, 4-Amino-5-(4-methoxyphenyl)-7-(2-C-methyl-β-D-ribofuranosyl)-7H-pyrrolo[2,3-d]pyrimidine]										
	COc1cccc2c1C(=O)c1c(O)c3c(c(O)c1C2=O)C[C@@](O)(C(=O)CO)C[C@@H]3O[C@H]1C[C@H](N)[C@H](O)[C@H](C)O1 [Doxorubicine, reference compound]	10.1			6	5	11	16	10	21	
